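In this assay, cells in 96-well plates receive the compound at five concentrations for 48 hours. Endpoints are linearly interpolated between the surrounding concentrations. At the GI50, growth is halved. At the TGI there is no net growth.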
Key:
Assay in all cases: NCI anticancer screen, dose series, 48 h
A498 renal = tested on: A498 renal
IGROV1 ovarian = tested on: IGROV1 ovarian
SK-MEL-5 melanoma = tested on: SK-MEL-5 melanoma
CCRF-CEM leukemia = tested on: CCRF-CEM leukemia
RXF 393 renal = tested on: RXF 393 renal
SN12C renal = tested on: SN12C renal
SNB-19 CNS = tested on: SNB-19 CNS
SR leukemia = tested on: SR leukemia
OVCAR-4 ovarian = tested on: OVCAR-4 ovarian
UACC-257 melanoma = tested on: UACC-257 melanoma
NCI-H23 lung = tested on: NCI-H23 lung
COLO 205 colon = tested on: COLO 205 colon
OVCAR-8 ovarian = tested on: OVCAR-8 ovarian
BT-549 breast = tested on: BT-549 breast
MCF7 breast = tested on: MCF7 breast
TK-10 renal = tested on: TK-10 renal
SNB-75 CNS = tested on: SNB-75 CNS
KM12 colon = tested on: KM12 colon
CAKI-1 renal = tested on: CAKI-1 renal
HCC-2998 colon = tested on: HCC-2998 colon
UACC-62 melanoma = tested on: UACC-62 melanoma
ACHN renal = tested on: ACHN renal
SK-OV-3 ovarian = tested on: SK-OV-3 ovarian
K-562 leukemia = tested on: K-562 leukemia
MDA-MB-231 breast = tested on: MDA-MB-231 breast
LOX IMVI melanoma = tested on: LOX IMVI melanoma
NCI-H226 lung = tested on: NCI-H226 lung
MALME-3M melanoma = tested on: MALME-3M melanoma
SF-268 CNS = tested on: SF-268 CNS
HL-60(TB) leukemia = tested on: HL-60(TB) leukemia
NCI-H522 lung = tested on: NCI-H522 lung
T-47D breast = tested on: T-47D breast
NCI-H460 lung = tested on: NCI-H460 lung
NCI/ADR-RES ovarian = tested on: NCI/ADR-RES ovarian
M14 melanoma = tested on: M14 melanoma
DU-145 prostate = tested on: DU-145 prostate
HT29 colon = tested on: HT29 colon
SW-620 colon = tested on: SW-620 colon
SF-295 CNS = tested on: SF-295 CNS
OVCAR-5 ovarian = tested on: OVCAR-5 ovarian
HCT-116 colon = tested on: HCT-116 colon
HCT-15 colon = tested on: HCT-15 colon
EKVX NSCLC = tested on: EKVX NSCLC
PC-3 prostate = tested on: PC-3 prostate
SF-539 CNS = tested on: SF-539 CNS
MOLT-4 leukemia = tested on: MOLT-4 leukemia
SK-MEL-2 melanoma = tested on: SK-MEL-2 melanoma
HOP-92 NSCLC = tested on: HOP-92 NSCLC
MDA-MB-435 = tested on: MDA-MB-435
U251 CNS = tested on: U251 CNS
HS 578T breast = tested on: HS 578T breast
786-0 renal = tested on: 786-0 renal
HOP-62 NSCLC = tested on: HOP-62 NSCLC
OVCAR-3 ovarian = tested on: OVCAR-3 ovarian
UO-31 renal = tested on: UO-31 renal
SK-MEL-28 melanoma = tested on: SK-MEL-28 melanoma
A549 NSCLC = tested on: A549 NSCLC

COc1cc2nc(-c3ccc(C(F)(F)F)cc3)cc(OCCCN3CCCCC3)c2cc1OC gave a GI50 (A498 renal) of 1850 nM, a TGI (A498 renal) of 5160 nM and a GI50 (IGROV1 ovarian) of 651 nM. The TGI (IGROV1 ovarian) was 16000 nM, the GI50 (SK-MEL-5 melanoma) was 325 nM and the TGI (SK-MEL-5 melanoma) was 1200 nM. It also gave a GI50 (CCRF-CEM leukemia) of 1830 nM, a TGI (CCRF-CEM leukemia) of 10600 nM and a GI50 (RXF 393 renal) of 1090 nM. It also gave a TGI (RXF 393 renal) of 4260 nM, a GI50 (SN12C renal) of 668 nM and a TGI (SN12C renal) of 15800 nM. For the same compound, the GI50 (SNB-19 CNS) was 2820 nM, the TGI (SNB-19 CNS) was 14600 nM and the GI50 (SR leukemia) was 193 nM. It also gave a TGI (SR leukemia) of 3620 nM, a GI50 (OVCAR-4 ovarian) of 2910 nM and a TGI (OVCAR-4 ovarian) of 31300 nM. The GI50 (UACC-257 melanoma) was 1700 nM, the TGI (UACC-257 melanoma) was 5270 nM and the GI50 (NCI-H23 lung) was 1910 nM. It also gave a TGI (NCI-H23 lung) of 11100 nM, a GI50 (COLO 205 colon) of 406 nM and a TGI (COLO 205 colon) of 1940 nM. The GI50 (OVCAR-8 ovarian) was 734 nM, the TGI (OVCAR-8 ovarian) was 20400 nM and the GI50 (BT-549 breast) was 1480 nM. It also gave a TGI (BT-549 breast) of 11700 nM, a GI50 (MCF7 breast) of 1160 nM and a TGI (MCF7 breast) of 4390 nM. It also gave a GI50 (TK-10 renal) of 7810 nM, a TGI (TK-10 renal) of 24500 nM and a GI50 (SNB-75 CNS) of 1960 nM. For the same compound, the TGI (SNB-75 CNS) was 6860 nM, the GI50 (KM12 colon) was 2920 nM and the TGI (KM12 colon) was 26900 nM. The GI50 (CAKI-1 renal) was 272 nM, the TGI (CAKI-1 renal) was 5050 nM and the GI50 (HCC-2998 colon) was 1280 nM. It also gave a TGI (HCC-2998 colon) of 5720 nM, a GI50 (UACC-62 melanoma) of 1820 nM and a TGI (UACC-62 melanoma) of 6290 nM. The GI50 (ACHN renal) was 1200 nM, the TGI (ACHN renal) was 14400 nM and the GI50 (SK-OV-3 ovarian) was 2300 nM. It also gave a TGI (SK-OV-3 ovarian) of 23300 nM, a GI50 (K-562 leukemia) of 578 nM and a TGI (K-562 leukemia) of 10400 nM. It also gave a GI50 (MDA-MB-231 breast) of 536 nM, a TGI (MDA-MB-231 breast) of 4040 nM and a GI50 (LOX IMVI melanoma) of 162 nM. For the same compound, the TGI (LOX IMVI melanoma) was 355 nM, the GI50 (NCI-H226 lung) was 370 nM and the TGI (NCI-H226 lung) was 3510 nM. For the same compound, the GI50 (MALME-3M melanoma) was 1260 nM, the TGI (MALME-3M melanoma) was 4030 nM and the GI50 (SF-268 CNS) was 3760 nM. The TGI (SF-268 CNS) was 24600 nM, the GI50 (HL-60(TB) leukemia) was 2910 nM and the TGI (HL-60(TB) leukemia) was 18300 nM. It also gave a GI50 (NCI-H522 lung) of 2440 nM, a TGI (NCI-H522 lung) of 21700 nM and a GI50 (T-47D breast) of 454 nM. For the same compound, the TGI (T-47D breast) was 22400 nM, the GI50 (NCI-H460 lung) was 595 nM and the TGI (NCI-H460 lung) was 11900 nM. For the same compound, the GI50 (NCI/ADR-RES ovarian) was 522 nM, the TGI (NCI/ADR-RES ovarian) was 14800 nM and the GI50 (M14 melanoma) was 327 nM. It also gave a TGI (M14 melanoma) of 1260 nM, a GI50 (DU-145 prostate) of 1840 nM and a TGI (DU-145 prostate) of 16500 nM. For the same compound, the GI50 (HT29 colon) was 415 nM, the TGI (HT29 colon) was 2520 nM and the GI50 (SW-620 colon) was 2910 nM. It also gave a TGI (SW-620 colon) of 13300 nM, a GI50 (SF-295 CNS) of 530 nM and a TGI (SF-295 CNS) of 2040 nM. For the same compound, the GI50 (OVCAR-5 ovarian) was 710 nM, the TGI (OVCAR-5 ovarian) was 16500 nM and the GI50 (HCT-116 colon) was 429 nM. It also gave a TGI (HCT-116 colon) of 11600 nM, a GI50 (HCT-15 colon) of 399 nM and a TGI (HCT-15 colon) of 10100 nM. The GI50 (EKVX NSCLC) was 803 nM, the TGI (EKVX NSCLC) was 14600 nM and the GI50 (PC-3 prostate) was 1340 nM. It also gave a TGI (PC-3 prostate) of 11200 nM, a GI50 (SF-539 CNS) of 2080 nM and a TGI (SF-539 CNS) of 8320 nM. For the same compound, the GI50 (MOLT-4 leukemia) was 1700 nM, the TGI (MOLT-4 leukemia) was 8560 nM and the GI50 (SK-MEL-2 melanoma) was 2640 nM. The TGI (SK-MEL-2 melanoma) was 8890 nM, the GI50 (HOP-92 NSCLC) was 678 nM and the TGI (HOP-92 NSCLC) was 7080 nM. For the same compound, the GI50 (MDA-MB-435) was 1230 nM, the TGI (MDA-MB-435) was 7080 nM and the GI50 (U251 CNS) was 1100 nM. The TGI (U251 CNS) was 14800 nM, the GI50 (HS 578T breast) was 2150 nM and the TGI (HS 578T breast) was 9940 nM. For the same compound, the GI50 (786-0 renal) was 2170 nM, the TGI (786-0 renal) was 6590 nM and the GI50 (HOP-62 NSCLC) was 947 nM. It also gave a TGI (HOP-62 NSCLC) of 13600 nM, a GI50 (OVCAR-3 ovarian) of 2440 nM and a TGI (OVCAR-3 ovarian) of 15400 nM. The GI50 (UO-31 renal) was 2000 nM, the TGI (UO-31 renal) was 12500 nM and the GI50 (SK-MEL-28 melanoma) was 1260 nM. It also gave a TGI (SK-MEL-28 melanoma) of 2950 nM, a GI50 (A549 NSCLC) of 722 nM and a TGI (A549 NSCLC) of 19400 nM.

Reference: PubChem BioAssay (NCI)
